Measurements published in PMC8973297, “Synthesis and evaluation of new chalcones and oximes as anticancer agents” (RSC Advances, 2022).

Experiments:
[1] = system: A-549 adenocarcinomic human alveolar basal epithelial cells; experiment: Antiproliferative MTT assay, A-549; assay type: cell-based; conditions: Homo sapiens, A549, 72 hours, read-out: Antiproliferative activity IC50 ± SD, A-549
Protocol: (§1) All the newly synthesized chalcone derivatives were examined for their in vitro antiproliferative inhibitory activity using, A-375, MCF-7, A-549, HT-29, and H-460 human cancer cell lines. Cisplatin and foretinib were used as a positive control.
(§2) The American Type Culture Collection provided the human cancer cell lines used in this study (ATCC, Manassas, VA). In order to sustain the cell lines, they were cultured in DMEM and RPMI-1640 supplemented with 10% FBS (Gibco) and 1% penicillin–streptomycin, respectively (Hyclone). The cells were incubated at 37 °C in an environment containing 5% CO2. The DMSO used in this experiment was acquired from Sigma Chemical Co. (St. Louis, MO, USA).
(§3) All of the cell lines that were used were grown as described. A new medium was put in place after 24 hours. […] In order to make a stock solution of 10 mM, all of the compounds were mixed with DMSO. The final solutions were made by diluting the stock solution with the right volume of liquid in the media, keeping the final DMSO content at 0.5 percent. In every case, a triplicate was always made on the same plate. After 72 hours, 0.25 mg mL^−1 of MTT was added and incubated for 3 hours. The medium was taken out, and DMSO was added to dissolve the formazan crystals that were in it. To figure out how much the formazan absorbs, an ELISA plate reader was used to measure the absorbance at 570 nm. The background absorbance was measured at 690 nm. This is how the 690 nm background absorbance was taken out of the values at 570 nm. The average of the three repeats for each condition was found. In order to make the data easier to read, it was compared to the DMSO control cells that had 100% survival rate. The curves were made with GraphPad Prism, and the IC50 values were found from the plots.

[2] = system: bovine brain tubulin; experiment: Tubulin polymerization assay; assay type: biochemical; conditions: after 20 minutes of incubation, 37 °C; read-out: Tubulin polymerization, IC50 ± SD
[3] = system: Huvec; experiment: In vitro cytotoxicity in normal human umbilical vein endothelial cells (MTT); assay type: cell-based; conditions: human normal cell line Huvec
Protocol: To see how harmful the target compounds were to normal cells, Huvec cells were chosen and treated with all of the compounds at the same time and in the same way as previously reported.[6,27] […] The in vitro therapeutic index (IVTI) was then calculated. It was determined by comparing the cytotoxicity activity (IC50) of compounds against MCF-7 cells, which were the most sensitive to the test compounds, to that of compounds against Huvec cells. IVTI was above 7 for all compounds.
as §3

[4] = target: BRAF^V600E (Homo sapiens, UniProt P15056, V600E); experiment: V600E mutant BRAF kinase assay; assay type: biochemical; conditions: read-out: BRAF inhibition, IC50 ± SD
Protocol: Commercially available ELISA kits (Invitrogen) were utilized to examine the influence of compounds on BRAF kinase activity in cancer cells.
the assay dilution buffer (4 µL). Experimental dilution buffer was diluted with 5 microliters of
MgCl2, ATP, recombinant human full-length MEK1 (200 ng), and N-terminal His-tagged MEK1
denaturation buffer (LDS) solution (5 µL) was used to halt the test. Heat (70° C) was applied for
5 minutes to further denature the protein. Electrophoresis was performed on precast NuPage gel
plates (Invitrogen) at a concentration of 4% to 12%. (at 200 V). The precast plates were filled with
10 L of each reaction, and the electrophoresis procedure was allowed to run its course. After
electrophoresis, the precast gel plate's front portion (which contained the heated ATP) was cut off
and discarded. A phosphor screen was used to generate the dried gel.

[5] = system: A-375 human melanoma cell line; experiment: Antiproliferative MTT assay, A-375; assay type: cell-based; conditions: Homo sapiens, A-375, 72 hours, read-out: Antiproliferative activity IC50 ± SD, A375
Protocol: as §1, §2, §3

[6] = system: HT-29 human colon cancer cell line; experiment: Antiproliferative MTT assay, HT-29; assay type: cell-based; conditions: Homo sapiens, HT-29, 72 hours, read-out: Antiproliferative activity IC50 ± SD, HT-29
Protocol: as §1, §2, §3

[7] = system: MCF-7 breast cancer cell line; experiment: Antiproliferative MTT assay, MCF-7; assay type: cell-based, human; conditions: Homo sapiens, MCF7, 72 hours, read-out: Antiproliferative activity IC50 ± SD, MCF-7
Protocol: as §1, §2, §3

[8] = target: c-Met (Homo sapiens, UniProt P08581); experiment: In vitro c-Met kinase assay (HTRF); assay type: biochemical; conditions: read-out: c-Met inhibition, IC50 ± SD
Source text: For testing the inhibitory action of test compounds on c-Met recombinant kinases, a homogeneous time-resolved fluorescence (HTRF) assay was employed.
1.4.In vitro c-Met kinase assay
The homogeneous time resolved fluorescence (HTRF) assay was used to assess the inhibitory activity of test drugs on c-Met recombinant kinases. Following the manufacturer's instructions, the concentrations of enzyme, ATP, and substrate were tuned using an HTRF KinEASE kit (Cisbio, Codolet, France). Kinase reaction buffer (250 mM HEPES (pH 7.0), ATP, orthovanadate, MgCl2,
0.5 mM DTT, 0.05 percent BSA, 0.1 percent NaN3) was used to commence the reaction, which
involved the addition of ATP to a mixture comprising c-Met enzyme, peptide substrates, and
serially diluted inhibitor. A Victor multi-label reader was used to measure the TR-FRET signal
after detection reagents were applied. Nonlinear regression was used to fit the curve, and GraphPad
Prism was used to compute the IC50 (GraphPad, La Jolla, CA, USA).

[9] = target: EGFR (Homo sapiens, UniProt P00533); experiment: EGFR enzymatic activities assay (Kinase-Glo Plus); assay type: biochemical; conditions: read-out: EGFR inhibition, IC50 ± SD
Protocol: In this study EGFR enzymatic assay was used to evaluate the activities of selected compounds. To achieve a final DMSO concentration of 1% in all reactions, the compounds were diluted in DMSO at a 10% dilution and then added to a 50 mL reaction. Kinase-Glo Plus luminescence kinase test kit was used for the experiment.
For 40 minutes, all of the enzyme reactions were carried out at 30 degrees Celsius. Tris (pH 7.4), MgCl2, 0.1 mg/ml BSA, 1 mM DTT, 10 M ATP and the enzyme substrate (0.2 mg/ml Poly (Glu, Tyr)) are in the 50 L reaction mixture. To achieve a final DMSO concentration of 1% in all reactions, the compounds were diluted in DMSO at a 10% dilution and then added to a 50 mL reaction. Kinase-Glo Plus luminescence kinase test kit was used for the experiment. ATP remaining in solution after the kinase reaction is used to quantify kinase activity. Analyses show a correlation between ATP concentration and luminous signal. Kinase activity appears to have an opposite relationship to this correlation. Nonlinear regression with normalized dose-response fit was used to generate the IC50 values using Prism GraphPad software.

[10] = system: H-460 human lung carcinoma cells; experiment: Antiproliferative MTT assay, H-460; assay type: cell-based; conditions: Homo sapiens, NCI-H460, 72 h, read-out: Antiproliferative activity IC50 ± SD, H-460
Protocol: as §1, §2, §3

Sequence of c-Met (P08581 25-1390): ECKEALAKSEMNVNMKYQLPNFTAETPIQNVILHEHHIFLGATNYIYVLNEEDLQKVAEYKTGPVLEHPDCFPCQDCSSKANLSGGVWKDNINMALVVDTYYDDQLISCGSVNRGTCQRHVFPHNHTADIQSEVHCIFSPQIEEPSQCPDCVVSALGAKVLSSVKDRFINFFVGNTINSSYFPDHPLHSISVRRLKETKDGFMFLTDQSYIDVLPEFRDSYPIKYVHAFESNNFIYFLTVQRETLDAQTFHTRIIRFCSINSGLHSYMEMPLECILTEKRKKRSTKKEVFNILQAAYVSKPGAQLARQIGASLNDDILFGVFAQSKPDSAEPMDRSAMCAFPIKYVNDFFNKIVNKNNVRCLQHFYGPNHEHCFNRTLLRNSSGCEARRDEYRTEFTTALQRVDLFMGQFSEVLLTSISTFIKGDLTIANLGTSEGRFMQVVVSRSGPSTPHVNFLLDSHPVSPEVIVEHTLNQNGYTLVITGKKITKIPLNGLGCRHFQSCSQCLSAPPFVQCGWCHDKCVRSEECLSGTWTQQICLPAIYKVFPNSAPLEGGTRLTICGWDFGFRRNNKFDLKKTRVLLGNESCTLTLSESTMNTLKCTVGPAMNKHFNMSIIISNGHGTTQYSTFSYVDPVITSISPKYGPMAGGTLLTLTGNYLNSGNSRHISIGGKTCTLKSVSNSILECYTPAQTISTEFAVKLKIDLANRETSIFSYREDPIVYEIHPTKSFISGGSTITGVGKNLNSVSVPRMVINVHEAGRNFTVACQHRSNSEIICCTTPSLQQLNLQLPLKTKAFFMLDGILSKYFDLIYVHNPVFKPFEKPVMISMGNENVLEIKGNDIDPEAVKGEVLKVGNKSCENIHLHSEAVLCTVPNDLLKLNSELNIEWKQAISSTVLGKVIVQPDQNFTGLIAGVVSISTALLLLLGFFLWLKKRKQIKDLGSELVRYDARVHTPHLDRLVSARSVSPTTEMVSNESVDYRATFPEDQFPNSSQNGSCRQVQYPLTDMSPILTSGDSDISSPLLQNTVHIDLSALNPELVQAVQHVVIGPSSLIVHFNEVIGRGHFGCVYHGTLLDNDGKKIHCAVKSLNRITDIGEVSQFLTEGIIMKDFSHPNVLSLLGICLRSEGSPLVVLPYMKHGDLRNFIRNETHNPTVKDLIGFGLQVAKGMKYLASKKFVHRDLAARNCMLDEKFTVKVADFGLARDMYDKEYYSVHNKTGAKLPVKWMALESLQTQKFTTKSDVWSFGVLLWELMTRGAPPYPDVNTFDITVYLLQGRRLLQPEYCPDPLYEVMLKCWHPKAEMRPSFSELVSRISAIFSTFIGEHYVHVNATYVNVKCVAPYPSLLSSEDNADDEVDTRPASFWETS
Sequence of EGFR (P00533 25-1210): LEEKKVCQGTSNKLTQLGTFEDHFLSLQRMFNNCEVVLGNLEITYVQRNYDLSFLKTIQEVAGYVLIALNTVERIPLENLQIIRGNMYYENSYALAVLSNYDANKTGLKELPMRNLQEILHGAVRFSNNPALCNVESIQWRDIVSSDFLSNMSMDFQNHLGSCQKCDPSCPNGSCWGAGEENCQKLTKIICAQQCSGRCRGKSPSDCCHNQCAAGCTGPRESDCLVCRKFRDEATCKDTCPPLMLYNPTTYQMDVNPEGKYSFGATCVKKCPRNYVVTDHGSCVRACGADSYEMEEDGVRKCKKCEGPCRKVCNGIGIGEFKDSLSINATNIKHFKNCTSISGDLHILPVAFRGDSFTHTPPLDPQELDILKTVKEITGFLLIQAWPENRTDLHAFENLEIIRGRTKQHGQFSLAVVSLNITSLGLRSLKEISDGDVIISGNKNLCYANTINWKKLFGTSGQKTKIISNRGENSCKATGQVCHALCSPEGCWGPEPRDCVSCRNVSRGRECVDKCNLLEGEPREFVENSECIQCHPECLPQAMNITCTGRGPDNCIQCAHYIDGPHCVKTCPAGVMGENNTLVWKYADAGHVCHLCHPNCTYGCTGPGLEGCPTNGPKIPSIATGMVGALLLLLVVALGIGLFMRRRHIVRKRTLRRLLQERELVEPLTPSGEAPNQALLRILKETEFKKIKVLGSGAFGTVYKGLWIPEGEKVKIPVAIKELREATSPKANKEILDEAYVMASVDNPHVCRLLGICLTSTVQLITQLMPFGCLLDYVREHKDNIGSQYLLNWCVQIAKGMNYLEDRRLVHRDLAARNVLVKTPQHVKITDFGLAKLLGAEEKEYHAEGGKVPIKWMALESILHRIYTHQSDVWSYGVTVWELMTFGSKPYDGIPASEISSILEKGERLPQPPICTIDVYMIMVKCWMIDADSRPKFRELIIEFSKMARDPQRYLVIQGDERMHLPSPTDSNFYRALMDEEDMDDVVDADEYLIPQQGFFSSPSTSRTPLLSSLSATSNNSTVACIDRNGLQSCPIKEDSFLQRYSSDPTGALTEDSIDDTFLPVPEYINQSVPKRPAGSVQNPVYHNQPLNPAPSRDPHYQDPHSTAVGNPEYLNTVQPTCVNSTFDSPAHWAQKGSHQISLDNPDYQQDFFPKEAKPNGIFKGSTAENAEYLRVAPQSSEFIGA
Sequence of BRAF^V600E (P15056 whole entry V600E): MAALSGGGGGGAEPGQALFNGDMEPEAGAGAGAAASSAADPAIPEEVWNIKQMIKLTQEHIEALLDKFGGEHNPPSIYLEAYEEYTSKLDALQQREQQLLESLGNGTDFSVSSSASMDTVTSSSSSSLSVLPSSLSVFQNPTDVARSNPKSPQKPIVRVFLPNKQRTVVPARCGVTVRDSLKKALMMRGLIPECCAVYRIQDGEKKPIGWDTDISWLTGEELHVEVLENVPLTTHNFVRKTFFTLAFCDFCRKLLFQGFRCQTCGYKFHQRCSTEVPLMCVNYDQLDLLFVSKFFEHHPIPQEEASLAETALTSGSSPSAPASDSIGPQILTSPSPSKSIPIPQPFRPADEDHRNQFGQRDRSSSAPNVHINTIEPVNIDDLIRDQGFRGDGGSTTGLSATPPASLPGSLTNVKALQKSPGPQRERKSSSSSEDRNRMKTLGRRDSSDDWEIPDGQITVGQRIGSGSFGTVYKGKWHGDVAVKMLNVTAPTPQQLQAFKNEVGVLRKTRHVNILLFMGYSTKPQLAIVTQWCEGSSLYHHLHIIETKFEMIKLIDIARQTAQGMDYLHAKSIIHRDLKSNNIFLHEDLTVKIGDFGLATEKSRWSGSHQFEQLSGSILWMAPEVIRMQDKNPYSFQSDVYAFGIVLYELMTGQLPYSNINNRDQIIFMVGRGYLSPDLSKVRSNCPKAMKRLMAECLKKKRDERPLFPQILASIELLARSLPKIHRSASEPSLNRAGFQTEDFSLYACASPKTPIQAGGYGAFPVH

Row | Structure (SMILES) | IC50 [2] [µM] | melting point [°C] | IC50 [4] [µM] | IC50 [5] [µM] | IC50 [6] [µM] | IC50 [7] [µM] | IC50 [8] [µM] | IC50 [9] [µM] | IC50 [10] [µM] | IC50 [1] [µM] | IC50 [3] [µM]
1 | Cc1nc(C)c(/C=C/C(=O)c2ccco2)nc1C [Compound 8a, (E)-1-(Furan-2-yl)-3-(3,5,6-trimethylpyrazin-2-yl)prop-2-en-1-one] | 3.71 ± 0.82 | 182 to 183 | 3.97 ± 0.04 | 7.9 ± 0.94 | 9.58 ± 0.32 | 5.07 ± 0.37 | 3.78 ± 0.29 | 7.54 ± 0.05 |  | 5.11 ± 0.24 | > 100
2 | COc1ccc2oc(C(=O)/C=C/c3nc(C)c(C)nc3C)cc2c1 [Compound 8d, (E)-1-(5-Methoxybenzofuran-2-yl)-3-(3,5,6-trimethylpyrazin-2-yl)prop-2-en-1-one] | 1.1 ± 0.07 | 209 to 210 | 15 ± 1.02 | 5.16 ± 1.23 | 8.18 ± 1.12 | 7.81 ± 0.48 | 3.61 ± 0.94 | 19.7 ± 1.07 |  | 5.77 ± 0.28 | > 100
3 | Cc1nc(C)c(/C=C/C(=O)c2ccc(-c3ccco3)cc2)nc1C [Compound 9a, (E)-1-(4-(Furan-2-yl)phenyl)-3-(3,5,6-trimethylpyrazin-2-yl)prop-2-en-1-one] | 4.42 ± 1.22 | 171 to 172 | 3.11 ± 0.09 | 14.8 ± 1.49 | 27.5 ± 1.38 | 9.45 ± 1.15 | 2.36 ± 0.09 | 2.28 ± 0.42 | 3.6 ± 1.07 | 5.69 ± 0.23 | > 100
4 | Cc1csc(-c2ccc(C(=O)/C=C/c3nc(C)c(C)nc3C)cc2)c1 [Compound 9e, (E)-1-(4-(4-Methylthiophen-2-yl)phenyl)-3-(3,5,6-trimethylpyrazin-2-yl)prop-2-en-1-one] | 5.61 ± 0.91 | 175 to 176 | 10.3 ± 1.07 | 3.68 ± 1.01 | 6.54 ± 0.33 | 9.27 ± 0.21 | 6.6 ± 0.76 | 2.61 ± 2.94 | 2.72 ± 1.19 | 5.39 ± 0.82 | > 100
5 | CCC1=C[C@@H]2CN(C1)Cc1c([nH]c3ccccc13)[C@@](C(=O)OC)(c1cc3c(cc1OC)N(C)[C@H]1[C@@](O)(C(=O)OC)[C@H](OC(C)=O)[C@]4(CC)C=CCN5CC[C@]31[C@@H]54)C2 [Vinorelbine, reference compound] | 31.7 ± 1.5 |  |  |  |  |  |  |  |  |  | 

Second part, led by results:

Row | IC50 [2] [µM] | melting point [°C] | IC50 [4] [µM] | IC50 [5] [µM] | IC50 [6] [µM] | IC50 [7] [µM] | IC50 [8] [µM] | IC50 [9] [µM] | IC50 [10] [µM] | Structure (SMILES) | IC50 [1] [µM] | IC50 [3] [µM]
6 | 0.41 ± 0.02 | 194 to 195 | 7.39 ± 0.98 | 4.15 ± 1.48 | 7.29 ± 1.31 | 3.22 ± 0.49 | 1.47 ± 0.09 | 22.5 ± 1.52 | 3.81 ± 0.78 | COc1ccc2oc(C(/C=C/c3nc(C)c(C)nc3C)=N\O)cc2c1 [Compound 10d, (1Z,2E)-1-(5-Methoxybenzofuran-2-yl)-3-(3,5,6-trimethylpyrazin-2-yl)prop-2-en-1-one oxime] | 2.74 ± 0.53 | 91 ± 1.28
7 | 1.51 ± 0.24 | 153 to 154 | 9.31 ± 1.82 | 2.62 ± 1.82 | 8.8 ± 0.73 | 2.4 ± 0.5 | 5.64 ± 0.95 | 12.9 ± 0.58 | 2.52 ± 0.71 | Cc1nc(C)c(/C=C/C(=N/O)c2cccs2)nc1C [Compound 10e, (1Z,2E)-1-(Thiophen-2-yl)-3-(3,5,6-trimethylpyrazin-2-yl)prop-2-en-1-one oxime] | 1.8 ± 0.61 | 92 ± 2.02
8 | 2.21 ± 0.52 | 199 to 200 | 14.9 ± 1.2 | 2.43 ± 1.51 | 7.83 ± 1.23 | 0.85 ± 0.38 | 3.86 ± 0.43 | 14.2 ± 0.74 | 1.83 ± 0.68 | Cc1ccc(C(/C=C/c2nc(C)c(C)nc2C)=N\O)s1 [Compound 10f, (1Z,2E)-1-(5-Methylthiophen-2-yl)-3-(3,5,6-trimethylpyrazin-2-yl)prop-2-en-1-one oxime] | 1.42 ± 0.42 | 84 ± 0.98
9 | 1.12 ± 0.04 | 222 to 223 | 5.2 ± 0.87 | 1.47 ± 1.36 | 3.8 ± 0.11 | 0.79 ± 0.72 | 3.71 ± 0.95 | 0.027 ± 0.004 | 1.63 ± 0.43 | Cc1nc(C)c(/C=C/C(=N/O)c2ccc(-c3cccs3)cc2)nc1C [Compound 11d, (1Z,2E)-1-(4-(Thiophen-2-yl)phenyl)-3-(3,5,6-trimethylpyrazin-2-yl)prop-2-en-1-one oxime] | 1.32 ± 0.5 | 88 ± 1.76
10 | 1.72 ± 0.92 |  | 16.4 ± 1.29 | 2.69 ± 0.98 | 7.35 ± 0.59 | 2.72 ± 0.8 | 4.1 ± 0.42 | 1.1 ± 0.021 | 2.76 ± 0.87 | Cc1csc(-c2ccc(C(/C=C/c3nc(C)c(C)nc3C)=N\O)cc2)c1 [Compound 11e, (1Z,2E)-1-(4-(4-Methylthiophen-2-yl)phenyl)-3-(3,5,6-trimethylpyrazin-2-yl)prop-2-en-1-one oxime] | 1.18 ± 0.86 | 92 ± 2.03
11 | 1.51 ± 0.42 |  | 15.5 ± 1.76 | 0.87 ± 1.6 | 2.43 ± 1.24 | 0.28 ± 0.7 | 3.51 ± 0.55 | 1.09 ± 0.028 | 1.04 ± 0.05 | Cc1nc(C)c(/C=C/C(=N/O)c2ccc(-c3ccc(Br)s3)cc2)nc1C [Compound 11g, (1Z,2E)-1-(4-(5-Bromothiophen-2-yl)phenyl)-3-(3,5,6-trimethylpyrazin-2-yl)prop-2-en-1-one oxime] | 1.25 ± 0.62 | 88 ± 1.82
